Measured values: PubChem BioAssay (NCI)
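Step 1: Grow cells in 96-well plates. Step 2: Expose to compound for 48 hours at 5 concentrations. Step 3: Interpolate endpoints linearly; if unreached, use highest concentration. The concentration for 50% growth inhibition is given as GI50. TGI marks complete inhibition of growth.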

How the values were obtained:
Experiment in all cases: NCI tumour cell line growth inhibition, 48 h
[1] = system: COLO 205 colon
[2] = system: HL-60(TB) leukemia
[3] = system: LOX IMVI melanoma
[4] = system: SK-MEL-28 melanoma
[5] = system: U251 CNS
[6] = system: SF-539 CNS
[7] = system: NCI-H23 lung
[8] = system: HCT-15 colon
[9] = system: UACC-257 melanoma
[10] = system: CCRF-CEM leukemia

Row | Structure (SMILES) | GI50 [1] | TGI [1] | GI50 [2] | TGI [2] | GI50 [3] | TGI [3] | GI50 [4] | TGI [4] | GI50 [5] | TGI [5] | GI50 [6] | TGI [6] | GI50 [7] | TGI [7] | GI50 [8] | TGI [8] | GI50 [9] | TGI [9] | GI50 [10] | TGI [10]
1 | CCOC(=O)c1cnc2c(cnn2CC)c1NN=C(C)C | 58.7 µM | > 100 µM | 59 µM | > 100 µM | 35.3 µM | > 100 µM | > 100 µM | > 100 µM | 35.6 µM | > 100 µM | 74.9 µM | > 100 µM | > 100 µM | > 100 µM | 32 µM | > 100 µM | 30.4 µM | > 100 µM | 78.3 µM | > 100 µM
2 | Cc1nc2ccc(NCCN(C)C)c3c(=O)c4cc(O)ccc4n1c23 |  | 2.3 µM |  | 3.1 µM |  | 2.62 µM |  | 11.7 µM |  | 11.7 µM |  | 12.2 µM |  | 2.05 µM |  | 2.8 µM |  | 13.6 µM |  | 2.5 µM
3 | COc1ccc(S(=O)(=O)N/N=C(\C)CN2C(=O)c3ccccc3C2=O)cc1 |  | > 100 µM |  | > 100 µM |  | > 100 µM |  | > 100 µM |  | > 100 µM |  | > 100 µM |  | > 100 µM |  | > 100 µM |  | > 100 µM |  | > 100 µM
4 | Cc1ccc([Se][Se]c2ccc(C)cc2)cc1 |  | > 100 µM |  | 19.2 µM |  | 18.9 µM |  | 81.3 µM |  | 17.5 µM |  | > 100 µM |  | > 100 µM |  | > 100 µM |  | 68.8 µM |  | 19.7 µM
5 | COc1cccc2c1C(=O)c1c(O)c3c(c(O)c1C2=O)C[C@@](O)(/C(C)=N\O)C[C@@H]3OC1CC(N)C(O)C(C)O1 (stereo not given in full) |  | 3.56 µM |  | 2.14 µM |  | 6.06 µM |  | 3.98 µM |  | 7.73 µM |  | 3.8 µM |  | 3.8 µM |  | > 100 µM |  | 6.02 µM |  | 2.38 µM
6 | O=C(/C=C/c1ccc(Cl)cc1)c1ccncc1 |  | > 100 µM |  | 67.3 µM |  | 73.6 µM |  | > 100 µM |  | > 100 µM |  | > 100 µM |  | > 100 µM |  | > 100 µM |  | > 100 µM |  | > 100 µM
7 | O=C(O/N=C1/CCCC/C1=C\c1ccccc1)c1ccc(Cl)cc1 |  | > 100 µM |  | > 100 µM |  | > 100 µM |  | > 100 µM |  | > 100 µM |  | > 100 µM |  | > 100 µM |  | > 100 µM |  | > 100 µM |  | > 100 µM
8 | CC1=C(c2cc(C(=O)Nc3cccc(C(F)(F)F)c3)nc(NC#N)n2)Sc2ccccc2N1 |  | > 100 µM |  | > 100 µM |  | > 100 µM |  | > 100 µM |  | > 100 µM |  | > 100 µM |  | > 100 µM |  | > 100 µM |  | > 100 µM |  | > 100 µM
9 | O=C1C=C(Nc2nc(C(=O)O)cc(=O)[nH]2)c2ccccc2C1=O |  | > 100 µM |  | > 100 µM |  | > 100 µM |  | > 100 µM |  | > 100 µM |  | > 100 µM |  | > 100 µM |  | > 100 µM |  | > 100 µM |  | > 100 µM
10 | O=C1c2ccccc2C2(O)Oc3cccc(O)c3C12O (stereo not given) |  | > 100 µM |  | > 100 µM |  | > 100 µM |  | > 100 µM |  | > 100 µM |  | > 100 µM |  | > 100 µM |  | > 100 µM |  | > 100 µM |  | > 100 µM
11 | Cc1ccc(-n2c(-c3ccc(Cl)cc3)cs/c2=N\NC(=O)COc2n[nH]c(=O)c3ccccc23)cc1 | > 100 µM | > 100 µM | > 100 µM | > 100 µM | > 100 µM | > 100 µM | > 100 µM | > 100 µM | 37.5 µM | > 100 µM | 19.6 µM | 71.8 µM | 34.1 µM | > 100 µM | > 100 µM | > 100 µM | 80.2 µM | > 100 µM | > 100 µM | > 100 µM
12 | Cc1nn(C)c(=S)n(C)c1=O |  | 15.4 µM |  | 6.47 µM |  | > 100 µM |  | > 100 µM |  | 30.1 µM |  | 21.9 µM |  | 10.6 µM |  | > 100 µM |  | 11.2 µM |  | > 100 µM
13 | COC(=O)[C@]12CC[C@@H](C)[C@H](C)[C@@H]1C1=CC[C@@H]3[C@@]4(C)C=C(O)C(=O)C(C)=C4CC[C@@]3(C)[C@]1(C)CC2 | 12.5 µM | 30.1 µM | 13.7 µM | 35.7 µM | 13 µM | 27.4 µM | 15.8 µM | 34 µM | 16.9 µM | 33.6 µM | 12.2 µM | 27.2 µM | 11 µM | 27.8 µM | 11.9 µM | 27.6 µM | 20 µM | 42.2 µM | 5.26 µM | 23.4 µM
14 | N#Cc1nc(Nc2ccc([N+](=O)[O-])cc2)sc1N |  | > 100 µM |  | > 29.8 µM |  | 28.6 µM |  | > 74.3 µM |  | > 48.5 µM |  | 18.7 µM |  | 20.5 µM |  | > 100 µM |  | 63.7 µM |  | > 100 µM
15 | NCC(=O)CCC(=O)O | > 100 µM | > 100 µM | > 100 µM | > 100 µM | > 100 µM | > 100 µM | > 100 µM | > 100 µM | > 100 µM | > 100 µM | > 100 µM | > 100 µM | > 100 µM | > 100 µM | > 100 µM | > 100 µM | > 100 µM | > 100 µM | > 87.2 µM | > 100 µM
16 | CCc1nc(N)nc(N)c1-c1ccc(Cl)c(N=NN(C)C)c1 |  | 50.7 µM |  | > 52.9 µM |  | > 100 µM |  | > 75.5 µM |  | > 100 µM |  | 56.9 µM |  | > 100 µM |  | > 100 µM |  | > 100 µM |  | > 73.2 µM
17 | O=C1C(=O)c2c(nc3ncccn23)-c2ccccc21 | 2.13 µM | 4.53 µM | 0.247 µM | 0.64 µM | 0.15 µM | 0.339 µM | 0.21 µM | 0.41 µM | 0.316 µM | 1.16 µM | 0.188 µM | 0.388 µM | 0.193 µM | 0.432 µM | 0.166 µM | 0.358 µM | 0.175 µM | 0.339 µM | 0.328 µM | 3.45 µM
18 | CC(C)(CCC(C)(C)c1ccccc1)c1ccccc1 |  | 33.5 µM |  | 32.5 µM |  | 32 µM |  | 42.7 µM |  | 30.4 µM |  | 43.6 µM |  | 33.9 µM |  | 45.7 µM |  | 29.2 µM |  | 39.9 µM
